pEC50, pKi: −log10 of the molar value. Where a name gives a salt, the structure may show the parent alone. Read-outs that look alike come from different tables or passages of the source.
Tests used:
[1] = tested on: K+ current in rat brain neurons; design: method as in Bailey et al. [2009]; settings: ref Bailey et al. [2009], read-out: EC50 for activation of the K+ current; cited from earlier work
human NOPr = human NOPr (Homo sapiens, UniProt P41146); test: Antagonism of nociceptin-stimulated [35S]GTPγS binding, CHO membranes overexpressing NOPr (SPA, antagonist mode); format: biochemical
MOPr [2] = target: T1, MOPr (Homo sapiens, UniProt P35372); test: Basal [35S]GTPγS binding, CHO membranes overexpressing MOPr (agonist mode); format: biochemical
MOPr [3] = target: T1, MOPr; test: Antagonism of Met-Enk-stimulated [35S]GTPγS binding, CHO membranes overexpressing MOPr (SPA, antagonist mode); format: biochemical
human KOPr = human KOPr (Homo sapiens, UniProt P41145); test: Antagonism of dynorphin-stimulated [35S]GTPγS binding, CHO membranes overexpressing KOPr (SPA, antagonist mode); format: biochemical
MOPr [4] = target: T1, MOPr; test: Basal [35S]GTPγS binding, membranes from CHO cells expressing a low level of MOPr; format: biochemical; settings: 1 μM, CHO MOPr approximately 70 fmol per milligram of protein
cocaine seeking = tested on: cocaine seeking; design: method as in Giuliano et al. [2013]; settings: ref Giuliano et al. [2013]; cited from earlier work
MOPr [5] = target: T1, MOPr; test: [3H]naloxone dissociation kinetics from MOPr, MOPr-HEK293 membranes; format: binding; settings: drug 1 μM
human DOPr = human DOPr (Homo sapiens, UniProt P41143); test: Antagonism of Met-Enk-stimulated [35S]GTPγS binding, CHO membranes overexpressing DOPr (SPA, antagonist mode); format: biochemical
[6] = target: MOPr in mouse brain membranes (Mus musculus, UniProt P42866); test: Basal [35S]GTPγS binding, whole mouse brain membranes (naive or morphine-pretreated mice); format: biochemical; settings: 1 μM
heroin seeking = tested on: heroin seeking; design: method as in Giuliano et al. [2013]; settings: ref Giuliano et al. [2013]; cited from earlier work
MOPr [7] = target: T1, MOPr; test: [3H]naloxone competition displacement binding, MOPr-HEK293 membranes
[8] = from fpKi, GTPγS antagonist mode

T1 sequence (P35372 whole entry): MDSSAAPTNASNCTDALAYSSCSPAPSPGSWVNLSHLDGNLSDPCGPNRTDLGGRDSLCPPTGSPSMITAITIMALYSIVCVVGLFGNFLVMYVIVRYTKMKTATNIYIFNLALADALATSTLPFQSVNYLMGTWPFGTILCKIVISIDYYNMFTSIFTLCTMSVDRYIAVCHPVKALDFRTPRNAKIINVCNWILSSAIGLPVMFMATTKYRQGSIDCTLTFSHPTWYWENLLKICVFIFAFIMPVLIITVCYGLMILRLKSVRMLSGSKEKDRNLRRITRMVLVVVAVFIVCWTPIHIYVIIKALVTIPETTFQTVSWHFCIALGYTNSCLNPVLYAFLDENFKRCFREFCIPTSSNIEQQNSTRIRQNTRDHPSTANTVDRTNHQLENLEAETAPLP
Sequence of MOPr in mouse brain membranes (P42866 whole entry): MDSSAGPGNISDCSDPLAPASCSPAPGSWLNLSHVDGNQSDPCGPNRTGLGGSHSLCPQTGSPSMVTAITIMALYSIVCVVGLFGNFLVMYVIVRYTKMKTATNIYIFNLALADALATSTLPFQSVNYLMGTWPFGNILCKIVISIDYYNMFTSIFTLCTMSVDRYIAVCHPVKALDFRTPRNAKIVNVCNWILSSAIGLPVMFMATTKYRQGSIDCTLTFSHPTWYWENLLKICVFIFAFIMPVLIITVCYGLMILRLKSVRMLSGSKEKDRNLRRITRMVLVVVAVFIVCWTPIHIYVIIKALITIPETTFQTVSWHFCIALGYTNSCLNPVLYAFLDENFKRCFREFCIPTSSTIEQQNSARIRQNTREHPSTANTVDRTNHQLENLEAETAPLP
Sequence of human NOPr (P41146 whole entry): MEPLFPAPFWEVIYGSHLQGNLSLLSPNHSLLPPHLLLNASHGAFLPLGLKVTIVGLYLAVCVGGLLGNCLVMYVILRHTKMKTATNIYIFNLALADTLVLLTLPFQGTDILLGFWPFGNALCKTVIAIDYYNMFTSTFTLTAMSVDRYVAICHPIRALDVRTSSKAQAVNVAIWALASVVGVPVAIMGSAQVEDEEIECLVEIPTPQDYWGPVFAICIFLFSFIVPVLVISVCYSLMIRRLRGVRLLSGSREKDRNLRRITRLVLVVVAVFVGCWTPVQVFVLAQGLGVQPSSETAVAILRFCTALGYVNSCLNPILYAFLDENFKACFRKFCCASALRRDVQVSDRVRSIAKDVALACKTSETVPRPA
Sequence of human KOPr (P41145 whole entry): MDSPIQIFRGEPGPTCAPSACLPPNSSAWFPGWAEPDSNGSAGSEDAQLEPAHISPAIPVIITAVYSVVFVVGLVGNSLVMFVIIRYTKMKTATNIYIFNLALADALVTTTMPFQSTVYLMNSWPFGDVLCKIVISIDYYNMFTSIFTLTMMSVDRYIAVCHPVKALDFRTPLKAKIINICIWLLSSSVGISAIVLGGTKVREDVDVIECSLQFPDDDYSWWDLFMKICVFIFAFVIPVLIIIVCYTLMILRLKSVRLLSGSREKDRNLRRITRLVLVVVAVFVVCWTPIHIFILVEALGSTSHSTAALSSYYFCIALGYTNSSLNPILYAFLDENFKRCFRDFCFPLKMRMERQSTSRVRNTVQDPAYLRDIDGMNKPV
Sequence of human DOPr (P41143 whole entry): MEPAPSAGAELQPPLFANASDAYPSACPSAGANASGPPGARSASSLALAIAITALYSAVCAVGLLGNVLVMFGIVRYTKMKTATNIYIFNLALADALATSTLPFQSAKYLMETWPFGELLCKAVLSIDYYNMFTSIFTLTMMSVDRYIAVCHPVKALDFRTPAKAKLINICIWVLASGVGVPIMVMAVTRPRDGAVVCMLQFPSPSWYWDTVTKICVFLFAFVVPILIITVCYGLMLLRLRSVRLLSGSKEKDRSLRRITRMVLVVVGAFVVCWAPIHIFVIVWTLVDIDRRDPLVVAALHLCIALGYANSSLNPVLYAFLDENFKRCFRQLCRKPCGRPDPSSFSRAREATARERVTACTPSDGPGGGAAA

In the case of `CSCC[C@H](NC(=O)[C@H](Cc1ccccc1)NC(=O)CNC(=O)CNC(=O)[C@@H](N)Cc1ccc(O)cc1)C(=O)O` [Met-Enk, methionine enkephalin acetate salt hydrate], the pEC50 [1] is given as 6.00.

With `C=C1CC[C@@]2(O)[C@H]3Cc4ccc(O)c5c4[C@@]2(CCN3CC2CC2)[C@H]1O5` [Nalmefene, nalmefene, reference compound] the pKi (human NOPr) was < 5.00, the “enhancement of basal [35S]GTPγS binding” value (MOPr [2]) was 20% and the “completeness of inhibition of the agonist response at MOPr” value (MOPr [3]) was “did not produce complete inhibition”.

With `Oc1ccc2c3c1O[C@H]1[C@H](O)CC[C@@]4(O)[C@@H](C2)N(CC2CC2)CC[C@]314` [6β-Naltrexol, 6-β-naltrexol] the “Antagonist potency (fpKi) NOPr” value (human NOPr; vs nociceptin, CHO cells overexpressing NOPr, mean ± SEM of three experiments) was <5.

In the case of `Fc1cc(-c2cccc(-c3nc[nH]n3)c2)cc(F)c1CNC1Cc2ccccc2C1.O=P(O)(O)O` [GSK1521498, N-{[3,5-difluoro-3′-(1H-1,2,4-triazol-3-yl)-4-biphenylyl]methyl}-2,3-dihydro-1H-inden-2-amine phosphate (1:1)], the “selectivity for MOPr over KOPr” value (human KOPr; [8]) was 14 fold, the Ki (human KOPr; vs dynorphin, CHO cells overexpressing KOPr, mean ± SEM of three experiments, read-out: Antagonist potency (fpKi) KOPr (converted)) was 3.31 nM and the Ki (human NOPr; vs nociceptin, CHO cells overexpressing NOPr, mean ± SEM of three experiments, read-out: Antagonist potency (fpKi) NOPr (converted)) was 257 nM. The “effect on basal level of GTPγS binding” value (MOPr [4]) was “did not modify”, the “greater reduction in cocaine seeking compared to naltrexone 3 mg/kg” value (cocaine seeking) was 2.5 fold and the “inhibition of basal [35S]GTPγS binding” value (MOPr [2]; CHO membranes highly overexpressing MOPr (Bmax 14,500 fmol/mg protein)) was “up to 18%”. For the same molecule, the “agonist activity when administered alone” value (MOPr [2]; at any of the opioid receptors, concentrations up to 100 μM) was “did not show agonist activity”, the “concentrations producing a significant inhibition of basal [35S]GTPγS binding” value (MOPr [2]; p < 0.001, ANOVA) was “greater than 0.4 nM” and the “rate of 3H-naloxone dissociation in the presence of drug” value (MOPr [5]) was “unchanged”. For the same molecule, the “selectivity for MOPr over DOPr” value (human DOPr; [8]) was 14 fold, the Ki (human DOPr; vs Met-Enk, CHO cells overexpressing DOPr, mean ± SEM of three experiments, read-out: Antagonist potency (fpKi) DOPr (converted)) was 3.16 nM and the “completeness of inhibition of the agonist response at MOPr” value (MOPr [3]; Met-Enk-stimulated GTPγS binding, CHO overexpressing MOPr) was “completely antagonize”. For the same molecule, the Ki (MOPr [3]; vs Met-Enk, CHO cells overexpressing MOPr, mean ± SEM of three experiments, read-out: Antagonist potency (fpKi) MOPr (converted)) was 0.229 nM, the “effect on basal [35S]GTPγS binding, naïve mice” value ([6]; brain membranes from naïve mice) was “did not reduce” and the “effect on basal [35S]GTPγS binding, severe morphine pre-treatment” value ([6]; brain membranes, 75 mg morphine pellet sc 3 days) was “very slight but statistically significant inhibition”. The “effect on basal [35S]GTPγS binding, acute morphine pre-treatment” value ([6]; brain membranes, morphine 100 mg/kg sc 4 h before sacrifice) was “did not reduce”, the “effect on basal [35S]GTPγS binding, moderate morphine pre-treatment” value ([6]; brain membranes, sc morphine at 8-h intervals for 3 days) was “did not reduce” and the “greater reduction in heroin seeking compared to naltrexone 3 mg/kg” value (heroin seeking) was 5.5 fold. The “maximum displacement of specific 3H-naloxone binding” value (MOPr [7]; HEK293 MOPr membranes) was 100% and the Ki (MOPr [7]; read-out: Affinity of binding (pKi) to MOPr (converted)) was 0.417 nM.

Source: paper PMC4281354, “The opioid receptor pharmacology of GSK1521498 compared to other ligands with differential effects on compulsive reward-related behaviours” (Psychopharmacology, 2014)
